In PubChem BioAssay AID720677 (Sanford-Burnham Center for Chemical Genomics, 2013):
The source made the active and inactive calls.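 The calls were made as follows: active = compounds whose IC50 is at or below a set limit; inactive = the rest.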

Molecular target: Bcl-2-like protein 10 (Homo sapiens) (UniProt Q9HD36)
Test: small molecules blocking Bcl-B/Bim BH3 binding – biochemical, fluorescence polarization, set 2, SAR follow-up (AID 720677)
Details: GST-Bcl-B / FITC-Bim peptide fluorescence polarization displacement

Sequence of Bcl-2-like protein 10 (Homo sapiens) (Q9HD36 whole entry, looked up): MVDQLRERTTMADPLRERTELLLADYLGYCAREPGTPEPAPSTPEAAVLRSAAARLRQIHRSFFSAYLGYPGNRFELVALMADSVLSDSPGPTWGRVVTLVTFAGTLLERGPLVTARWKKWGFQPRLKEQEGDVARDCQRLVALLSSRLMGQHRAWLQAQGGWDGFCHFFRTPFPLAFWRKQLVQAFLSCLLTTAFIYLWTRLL

IC50	SMILES
> 20000 nM (inactive)	COc1ccccc1Cn1c(=O)c2c(n3nnnc13)-c1ccccc1CC21CCCC1
985 nM	COc1cccc(Cn2c(=O)c3c(n4nnnc24)-c2ccccc2CC32CCCC2)c1
> 20000 nM (inactive)	O=c1c2c(n3nnnc3n1Cc1ccccc1Cl)-c1ccccc1CC21CCCC1
3430 nM	COc1ccc(Cn2c(=O)c3c(n4cnnc24)-c2cc(F)ccc2CC32CCCC2)cc1
> 20000 nM (inactive)	O=c1c2c(n3cnnc3n1Cc1ccc(F)cc1)-c1cc(F)ccc1CC21CCCC1
1010 nM	COc1ccc(Cn2c(=O)c3c(n4nnnc24)-c2cc(F)ccc2CC32CCCC2)cc1
795 nM	COc1ccc(Cn2c(=O)c3c(n4nnnc24)-c2ccccc2CC32CCCC2)cc1
